54 molecules from PubChem BioAssay AID179 (DTP/NCI, 2004) can be followed below.

Calls of active or inactive are those of the source.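 Rule for the calls: active = compounds giving half or more protection of infected cells from virus-caused growth loss, again on retest; inactive = the rest.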

The experiment relates to CEM cells HIV-1 protection, formazan growth assay. In words: NCI AIDS Antiviral Assay. The note with it: for IC50: measured here: growth of uninfected CEM cells. The gist of the method: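 Protection of CEM cells against HIV-1 measured as cell growth via soluble formazan read-out, with five concentrations tested on both infected and uninfected cells; failure to protect may reflect toxicity.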

One may read the EC50 as the midpoint of the concentration-response curve. The term IC50 denotes the concentration that gives 50% inhibition. A higher IC50 goes with a need for much substance. Take `O=C(O)C1SCCCS1`: the EC50 was over 1510 µM and the IC50 is over 1510 µM.
As to `CCOP(=O)(Cc1cc(C(C)(C)C)c(O)c(C(C)(C)C)c1)OCC`, the EC50 is over 100 µM and the IC50 is over 100 µM.
As for `CCN1C[C@]2(C)CC[C@H](OCc3ccccc3)C34C5C[C@@H]6CC[C@](O)(C(C[C@@H]32)C14)C5[C@H]6OCc1ccccc1` (stereo partly specified), the EC50 was over 200 µM and the IC50 was over 100 µM.
On to `O=C(O)CCCCCCC[C@@H]1S[C@H]1CCCCCCO`, for which the outcome was inactive.
On to `CCOC(=O)C(C)NC(=O)NC12CC3CC(CC(F)(C3)C1)C2` (stereo unspecified), for which the EC50 is over 219 µM and the 50% inhibitory concentration (IC50) was over 200 µM.
On the same counts, the results for `CCn1c2ccccc2c2ccc3c(c21)C(=O)c1ccccc1C3=O` are over 3.24 µM and over 3.24 µM.
In the case of `CC1(C)CC(=O)C2C(C1)Nc1ccccc1NC2c1ccccc1[N+](=O)[O-]` (stereo unspecified), the EC50 was over 61.7 µM and the IC50 is over 61.7 µM.
For the molecule `COc1ccccc1C1C(Cl)C(=O)N1n1cnc2ccccc2c1=O` (stereo unspecified), the EC50 was over 52.5 µM and the IC50 is over 52.5 µM.
For `Oc1[nH]c(=S)sc1/C=C1\C=Nc2ccccc21`, the EC50 was over 501 µM and the IC50 amounted to 195 µM.
As for `Cc1cccnc1NC(=S)Nc1cccc(C(F)(F)F)c1`, the EC50 was over 200 µM and the IC50 amounted to 16.2 µM.
In the case of `O=C(/C=C/c1c(O)ccc2ccccc12)c1cccc2ccccc12`, the EC50 is over 162 µM and the half-inhibitory concentration (IC50) was found to be 112 µM.
For the molecule `COC(=O)c1cc(C(=O)Nc2cc(Cc3cc(NC(=O)c4ccc(OC)c(C(=O)OC)c4)c(OC)c(C(=O)OC)c3)cc(C(=O)OC)c2OC)ccc1OC`, the EC50 is over 200 µM and the IC50 was over 200 µM.
On to `Cc1ccc(S(=O)(=O)SCc2ccccc2CSS(=O)(=O)c2ccc(C)cc2)cc1`, for which the result was inactive.
Regarding `CC12COC3(C)CCC(C)(OC1)N23` (stereo unspecified), the EC50 is over 490 µM and the IC50 was over 490 µM.
For the molecule `CN(CCN1C(=O)c2cccc3cc([N+](=O)[O-])cc(c23)C1=O)CCN1C(=O)c2cccc3cc([N+](=O)[O-])cc(c23)C1=O`, the EC50 is over 9.12 µM.
`CN(C)CCCNC(=O)CNC(=O)c1cc(NC(=O)c2cc(NC(=O)c3cc(NC(=O)CCNC(=O)c4cc(NC(=O)c5cc(NC(=O)c6nccn6C)cn5C)cn4C)cn3C)cn2C)cn1C`: the result was inactive.
For `COC(=O)c1ccc(C)cc1C1CN=NC12Cc1c(C)cccc1C2=O` (stereo unspecified), the EC50 was over 200 µM and the IC50 was over 200 µM.
As for `CC(SC(=S)Nc1cccc(F)c1)C(=O)O` (stereo unspecified), the result was inactive.
In the case of `CCCCCCc1cc2c(O)c(C(c3ccccc3)c3c(O)c4cc(CCCCCC)c(O)cc4oc3=O)c(=O)oc2cc1O`, the EC50 is over 200 µM and the 50% inhibitory concentration (IC50) stood at 5.62 µM.
Take `C=C(CCC(Cl)C(COC)OC(CCC)OCC)[Si](C)(C)C` (stereo unspecified): the EC50 is over 38.9 µM and the IC50 was over 38.9 µM.
As to `CC(C)=CCC[C@]1(C)C=Cc2c(O)c3c(c(CC=C(C)C)c2O1)O[C@]12C(=C[C@@H]4CC1C(C)(C)O[C@@]2(C/C=C(/C)C(=O)O)C4=O)C3=O`, the EC50 was over 0.2 µM and the IC50 is 0.0631 µM.
Regarding `O=C(CC(O)(C(F)(F)F)C(F)(F)Cl)CC(O)(C(F)(F)F)C(F)(F)Cl` (stereo unspecified), the outcome was inactive.
`CCOC1OCN(C)CC1(C)C` (stereo unspecified): the EC50 was over 1450 µM and the half-inhibitory concentration (IC50) was 79.4 µM.
Consider `COP(=O)(Cc1ccccc1)Cc1ccccc1`, for which the EC50 was over 200 µM and the IC50 was over 200 µM.
Regarding `COc1cc(C2c3cc4c(cc3C(NCC(O)CO)C3COC(=O)[C@H]23)OCO4)cc(OC)c1OC` (stereo partly specified), the result was inactive.
`c1ccc(CN2CCC3(CC2)SSC2(CCN(Cc4ccccc4)CC2)SS3)cc1`: the EC50 was over 100 µM and the IC50 is 64.6 µM.
For the molecule `O=C(O/N=C1/CCCC/C1=C\c1ccccc1)c1ccc(Cl)c(Cl)c1`, the result was inactive.
`N#C/C(=C\c1ccc(C#N)cc1)C(=O)O`: the EC50 was over 36.3 µM and the IC50 is over 36.3 µM.
In the case of `CC(=O)OC1c2ccccc2CCCCCCC12OCCO2` (stereo unspecified), the EC50 is over 200 µM and the IC50 was determined as 105 µM.
Take `NC(CSSCC(N)C(=O)O)C(=O)O` (stereo unspecified): the EC50 was over 200 µM and the IC50 is over 200 µM.
`CN(C)C(=S)/N=c1\ss/c(=N\S(=O)(=O)c2ccccc2)n1N(C)C`: the result was inactive.
With `CCCCCCCCCCCCC1=C(OC)C(=O)c2cccnc2C1=O`, the outcome was inactive.
For the molecule `O=c1[nH]c(=S)[nH]n1C(=S)n1[nH]c(=S)[nH]c1=O`, the EC50 is over 200 µM and the IC50 is over 200 µM.
Regarding `COC1/C=C/OC2(C)Oc3c(C)c(O)c4c(c3C2=O)C(=O)C(CO)=C(NC(=O)/C(C)=C\C=C\C(C)C(O)C(C)C(O)C(C)C(OC(C)=O)C1C)C4=O` (stereo unspecified), the EC50 is over 200 µM and the IC50 came to 91.2 µM.
Turning to `Cc1ccc2nnn3c(=N)nc(N)nc3c2c1`, the EC50 was over 79.4 µM and the IC50 is over 79.4 µM.
For `Clc1cc(C(c2cc(Cl)sc2Cl)c2cc(Cl)sc2Cl)c(Cl)s1`, the EC50 is over 50.1 µM and the IC50 was over 50.1 µM.
As to `O=C(Cc1ccc([N+](=O)[O-])cc1)OCC#CCOC(=O)Cc1ccc([N+](=O)[O-])cc1`, the EC50 was over 200 µM and the IC50 was over 200 µM.
Take `CN(C)C=Nc1c(I)cc(I)c(CCC(=O)O)c1I`: the EC50 is over 200 µM and the IC50 was over 200 µM.
Take `O=C1/C=C/C(=O)OCCCC(=O)/C=C/C(=O)OCCC1`: the result was inactive.
Turning to `COc1cc(C)cc2c1C(=O)C(NC(C)=O)=CC2=O`, the EC50 is over 200 µM and the IC50 came out at 11.7 µM.
Take `O=C(O)C(=O)Cc1ccc(O)cc1`: the EC50 is over 200 µM and the IC50 was over 200 µM.
Turning to `O=C(CC(O)(c1ccccc1)c1ccc(Cl)cc1)NC(=O)c1ccccc1O` (stereo unspecified), the EC50 is over 13.2 µM and the IC50 was over 13.2 µM.
`O=C1NC(=S)NNC12c1ccccc1-c1ccccc12`: the EC50 was over 200 µM and the IC50 amounted to 33.9 µM.
On the same counts, the results for `CC(CCc1nc2ccccc2[nH]1)C1CCC2C3CC[C@@H]4C[C@H](O)CC[C@]4(C)C3CC[C@]12C` (stereo partly specified) are over 50.1 µM and over 50.1 µM.
Consider `S=C(NCCc1ccccn1)N/N=C(\c1ccccc1)c1ccccn1`, for which the EC50 is over 0.2 µM and the IC50 came to 0.0676 µM.
Take `CC(=O)C(N1CCCCC1)C(O)(C(F)(F)F)C(F)(F)F` (stereo unspecified): the EC50 was over 200 µM and the IC50 was 91.2 µM.
For `Cc1cc2nnc(-c3cccc([N+](=O)[O-])c3)n2c2nnnn12`, the EC50 was over 200 µM and the IC50 is over 200 µM.
Turning to `COc1ccc(C/C=C(\C)CCO)cc1`, the EC50 is over 200 µM and the IC50 is 126 µM.
For `N#CC(C#N)=C1NC(=O)C(c2ccccc2)C(=O)N1` (stereo unspecified), the outcome was inactive.
On to `C=CC(=O)NC(N)=NC#N`, for which the EC50 is over 1820 µM and the IC50 was determined as 60.3 µM.
For `COC(=O)c1ccccc1C1CN=NC12Cc1ccc3ccccc3c1C2=O` (stereo unspecified), the EC50 was over 200 µM and the 50% inhibitory concentration (IC50) was over 200 µM.
Turning to `CCP(=S)(CC)CCl`, the EC50 was over 200 µM and the IC50 is over 200 µM.
In the case of `CN(C)c1ccc(C(=CC=C2C(=O)c3ccccc3C2=O)c2ccc(N(C)C)cc2)cc1`, the EC50 was over 11.2 µM and the IC50 is over 11.2 µM.
Regarding `CC1(C)C2CC3OC3(C)C1C2` (stereo unspecified), the EC50 was over 200 µM and the IC50 is over 200 µM.
